# Patent publication US20250296953A1, “3,4-THIAZOLO-STEROIDS AND METHODS OF MAKING AND USING THE SAME” (Arkansas State University - Jonesboro, priority 2018, published 2025)
# Where two headings read alike, the source gives them in different places.
# How the values were obtained:
# [1] = tested on: 60 different human tumor cell lines; experiment: cells
# glioblastoma (SF-295) = experiment: NCI 60 five dose screen
# NCI-H522 (NSCLC) = experiment: NCI 60 one dose screen; assay type: cell-based, human; settings: Non-small Cell Lung Cancer
# RPMI-8226 = experiment: NCI 60 five dose screen
structure (smiles),measurement,setting,value
"C[C@]12CCc3sc(NCCc4ccccc4)nc3C1=CC[C@@H]1[C@@H]2CC[C@]2(C)C(=O)CC[C@@H]12 [IIa.2, (1S,2R,13R,14S,18S)-2,18-dimethyl-7-(2-phenylethylamino)-6-thia-8-azapentacyclo [11.7.0.02,10.05,9.014,18]icosa-5(9),7,10-trien-17-one]",GI50,[1]; 60 cell,3.35 µM
same,CC50,"[1]; 60 cell, read-out: LC50",> 100 µM
same,GI50,[1]; 786-0,2.82 µM
same,CC50,"[1]; 786-0, read-out: LC50",> 100 µM
same,GI50,[1]; A498,4.43 µM
same,CC50,"[1]; A498, read-out: LC50",> 100 µM
same,GI50,[1]; A549,7 µM
same,CC50,"[1]; A549, read-out: LC50",> 100 µM
same,GI50,[1]; ACHN,1.96 µM
same,CC50,"[1]; ACHN, read-out: LC50",7.19 µM
same,GI50,[1]; BT-549,2.42 µM
same,CC50,"[1]; BT-549, read-out: LC50",> 100 µM
same,GI50,[1]; CAKI-1,3.13 µM
same,CC50,"[1]; CAKI-1, read-out: LC50",> 100 µM
same,GI50,[1]; CCRF-CEM,2.63 µM
same,CC50,"[1]; CCRF-CEM, read-out: LC50",> 100 µM
same,GI50,[1]; COLO 205,3.03 µM
same,CC50,"[1]; COLO 205, read-out: LC50",> 100 µM
same,GI50,[1]; DU-145,3.64 µM
same,CC50,"[1]; DU-145, read-out: LC50",> 100 µM
same,GI50,[1]; EKVX,90.1 µM
same,CC50,"[1]; EKVX, read-out: LC50",> 100 µM
same,GI50,[1]; HCC 2998,8.19 µM
same,CC50,"[1]; HCC 2998, read-out: LC50",> 100 µM
same,GI50,[1]; HCT-15,1.57 µM
same,CC50,"[1]; HCT-15, read-out: LC50",88.7 µM
same,GI50,[1]; HCT-116,2.87 µM
same,CC50,"[1]; HCT-116, read-out: LC50",> 100 µM
same,GI50,[1]; HL-60,2.93 µM
same,CC50,"[1]; HL-60, read-out: LC50",> 100 µM
same,GI50,[1]; HOP-62,8.52 µM
same,CC50,"[1]; HOP-62, read-out: LC50",> 100 µM
same,GI50,[1]; HOP-92,2.75 µM
same,CC50,"[1]; HOP-92, read-out: LC50",> 100 µM
same,GI50,[1]; HT-29,2.21 µM
same,CC50,"[1]; HT-29, read-out: LC50",> 100 µM
same,GI50,[1]; Hs-578T,2.85 µM
same,CC50,"[1]; Hs-578T, read-out: LC50",> 100 µM
same,GI50,[1]; IGROV-1,2.6 µM
same,CC50,"[1]; IGROV-1, read-out: LC50",65.6 µM
same,GI50,[1]; K562,2.89 µM
same,CC50,"[1]; K562, read-out: LC50",> 100 µM
same,GI50,[1]; KM12,3.6 µM
same,CC50,"[1]; KM12, read-out: LC50",> 100 µM
same,GI50,[1]; LOX IMVI,1.7 µM
same,CC50,"[1]; LOX IMVI, read-out: LC50",5.91 µM
same,GI50,[1]; M14,3.63 µM
same,CC50,"[1]; M14, read-out: LC50",> 100 µM
same,GI50,[1]; MCF7,2.68 µM
same,CC50,"[1]; MCF7, read-out: LC50",> 100 µM
same,GI50,[1]; MDA-MB-231,3.4 µM
same,CC50,"[1]; MDA-MB-231, read-out: LC50",> 100 µM
same,GI50,[1]; MDA-MB-435,3.01 µM
same,CC50,"[1]; MDA-MB-435, read-out: LC50",> 100 µM
same,GI50,[1]; MDA-MB-468,2.99 µM
same,CC50,"[1]; MDA-MB-468, read-out: LC50",> 100 µM
same,GI50,[1]; MOLT-4,2.58 µM
same,CC50,"[1]; MOLT-4, read-out: LC50",> 100 µM
same,GI50,[1]; Malme-3M,2.18 µM
same,CC50,"[1]; Malme-3M, read-out: LC50",> 100 µM
same,GI50,[1]; NCI-H23,5.03 µM
same,GI50,[1]; NCI-H226,2.42 µM
same,CC50,"[1]; NCI-H226, read-out: LC50",> 100 µM
same,GI50,[1]; NCI-H322M,96.9 µM
same,CC50,"[1]; NCI-H322M, read-out: LC50",> 100 µM
same,GI50,[1]; NCI-H460,4.47 µM
same,CC50,"[1]; NCI-H460, read-out: LC50",> 100 µM
same,GI50,[1]; NCI-H522,1.78 µM
same,CC50,"[1]; NCI-H522, read-out: LC50",7.45 µM
same,GI50,[1]; NCI/ADR-RES,2.31 µM
same,CC50,"[1]; NCI/ADR-RES, read-out: LC50",> 100 µM
same,GI50,[1]; OVCAR-3,2.08 µM
same,CC50,"[1]; OVCAR-3, read-out: LC50",> 100 µM
same,GI50,[1]; OVCAR-4,3.93 µM
same,CC50,"[1]; OVCAR-4, read-out: LC50",> 100 µM
same,GI50,[1]; OVCAR-5,4.44 µM
same,CC50,"[1]; OVCAR-5, read-out: LC50",> 100 µM
same,GI50,[1]; OVCAR-8,2.77 µM
same,CC50,"[1]; OVCAR-8, read-out: LC50",> 100 µM
same,GI50,[1]; RXF 393,1.73 µM
same,CC50,"[1]; RXF 393, read-out: LC50",30.9 µM
same,GI50,[1]; SF-268,4.62 µM
same,CC50,"[1]; SF-268, read-out: LC50",> 100 µM
same,GI50,[1]; SK-MEL-2,17 µM
same,CC50,"[1]; SK-MEL-2, read-out: LC50",> 100 µM
same,GI50,[1]; SK-MEL-5,4.57 µM
same,CC50,"[1]; SK-MEL-5, read-out: LC50",> 100 µM
same,GI50,[1]; SK-MEL-28,3.37 µM
same,CC50,"[1]; SK-MEL-28, read-out: LC50",> 100 µM
same,GI50,[1]; SK-OV-3,> 100 µM
same,CC50,"[1]; SK-OV-3, read-out: LC50",> 100 µM
same,GI50,[1]; SN12C,2.89 µM
same,CC50,"[1]; SN12C, read-out: LC50",> 100 µM
same,GI50,[1]; SNB-19,97.5 µM
same,CC50,"[1]; SNB-19, read-out: LC50",> 100 µM
same,GI50,[1]; SNB-75,2.67 µM
same,CC50,"[1]; SNB-75, read-out: LC50",> 100 µM
same,GI50,[1]; SW-620,2.3 µM
same,CC50,"[1]; SW-620, read-out: LC50",> 100 µM
same,GI50,[1]; T47D,3.05 µM
same,CC50,"[1]; T47D, read-out: LC50",> 100 µM
same,GI50,[1]; TK-10,4.15 µM
same,CC50,"[1]; TK-10, read-out: LC50",> 100 µM
same,GI50,[1]; U-251,4.97 µM
same,CC50,"[1]; U-251, read-out: LC50",> 100 µM
same,GI50,[1]; UACC-62,2.67 µM
same,CC50,"[1]; UACC-62, read-out: LC50",> 100 µM
same,GI50,[1]; UACC-257,4.92 µM
same,CC50,"[1]; UACC-257, read-out: LC50",> 100 µM
same,GI50,[1]; UO-31,4.03 µM
same,CC50,"[1]; UO-31, read-out: LC50",> 100 µM
same,GI50,"glioblastoma (SF-295); Homo sapiens, SF-295",18.9 µM
same,CC50,"glioblastoma (SF-295); Homo sapiens, SF-295, read-out: LC50",> 100 µM
same,TGI,"glioblastoma (SF-295); SF-295 (CNS Cancer), five dose",>1.00E−4
same,Growth Percent,NCI-H522 (NSCLC),44.08%
same,GI50,"RPMI-8226; Homo sapiens, RPMI-8226",1.79 µM
same,CC50,"RPMI-8226; Homo sapiens, RPMI-8226, read-out: LC50",> 100 µM
same,TGI,"RPMI-8226; RPMI-8226 (Leukemia), five dose",5.69E−6
